# Experimental data: US11970498B2, “CDK2 inhibitors” (BLUEPRINT MEDICINES CORPORATION, priority 2021, dated 2024)
# Tests used:
# [1] = target: CDK2/Cyclin E (Homo sapiens, UniProt P24941); assay: CDK2/Cyclin E biochemical phosphorylation assay (Caliper mobility shift); conditions: apparent IC50; 1.0 mM ATP or ATP Km; 1.25 nM enzyme; 25° C.; read-out: CDK2/cyclin E1 IC50
# How it was run: (§1)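 7.5 µM 5-FAM-QSPKKG-CONH2 peptide phosphorylated by CDK2/Cyclin E (1.25 nM) or GST-CDK1/Cyclin B1 (1.5 nM) at 1.0 mM ATP or ATP Km, in HEPES pH 7.5, MgCl2, Brij-35, DTT, 1% DMSO, 25 °C to 10–20% conversion. EDTA stop; Caliper mobility-shift readout; apparent IC50 from percent activity vs log concentration.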
# [2] = target: T1, CDK1/Cyclin B1, GST-tag (Homo sapiens, UniProt P06493); assay: CDK1/Cyclin B1 biochemical phosphorylation assay (Caliper mobility shift); conditions: apparent IC50; 1.0 mM ATP or ATP Km; 1.5 nM enzyme; 25° C.
# T1 construct: GST
# T1 sequence (P06493 whole entry): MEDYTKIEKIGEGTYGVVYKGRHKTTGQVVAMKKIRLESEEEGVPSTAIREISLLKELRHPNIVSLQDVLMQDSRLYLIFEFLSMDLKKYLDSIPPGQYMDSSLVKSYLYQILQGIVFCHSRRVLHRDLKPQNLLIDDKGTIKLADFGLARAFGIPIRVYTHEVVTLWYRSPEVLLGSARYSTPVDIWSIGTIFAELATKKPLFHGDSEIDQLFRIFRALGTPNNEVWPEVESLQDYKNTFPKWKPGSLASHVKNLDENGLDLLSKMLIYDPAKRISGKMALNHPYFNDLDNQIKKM
# T1 sequence (P14635 whole entry partner): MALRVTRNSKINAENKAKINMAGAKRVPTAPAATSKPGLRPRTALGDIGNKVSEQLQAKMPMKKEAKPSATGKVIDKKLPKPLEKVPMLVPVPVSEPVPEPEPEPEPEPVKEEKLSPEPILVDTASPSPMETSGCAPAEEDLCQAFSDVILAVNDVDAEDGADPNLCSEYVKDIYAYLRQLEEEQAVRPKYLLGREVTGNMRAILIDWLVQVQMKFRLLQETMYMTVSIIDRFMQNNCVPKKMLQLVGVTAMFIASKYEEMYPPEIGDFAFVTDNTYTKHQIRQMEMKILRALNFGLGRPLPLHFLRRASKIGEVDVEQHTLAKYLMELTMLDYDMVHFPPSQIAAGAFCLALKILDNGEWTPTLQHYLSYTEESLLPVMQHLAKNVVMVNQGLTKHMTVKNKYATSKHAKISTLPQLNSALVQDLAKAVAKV
# How it was run: as §1
smiles,measurement,setting,value
"COc1cc(Nc2cnc3cnn([C@@H](C(F)F)C4CCOCC4)c3n2)n[nH]1 (single isomer, unassigned) [Example 193, (S)-1-(2,2-difluoro-1-(tetrahydro-2H-pyran-4-yl)ethyl)-N-(5-methoxy-1H-pyrazol-3-yl)-1H-pyrazolo[3,4-b]pyrazin-6-amine or (R)-1-(2,2-difluoro-1-(tetrahydro-2H-pyran-4-yl)ethyl)-N-(5-methoxy-1H-pyrazol-3-yl)-1H-pyrazolo[3,4-b]pyrazin-6-amine]",IC50,[1],10 to 20 nM
same,IC50,[2],≥ 500 nM
"C[C@@H](O)c1nn([C@@H](C)C2CCOCC2)c2nc(Nc3cc(OC(F)F)[nH]n3)cnc12 (single isomer, unassigned) [Example 181, (R)-1-(6-((5-(difluoromethoxy)-1H-pyrazol-3-yl)amino)-1-((S)-1-(tetrahydro-2H-pyran-4-yl)ethyl)-1H-pyrazolo[3,4-b]pyrazin-3-yl)ethan-1-ol or (S)-1-(6-((5-(difluoromethoxy)-1H-pyrazol-3-yl)amino)-1-((S)-1-(tetrahydro-2H-pyran-4-yl)ethyl)-1H-pyrazolo[3,4-b]pyrazin-3-yl)ethan-1-ol]",IC50,[1],≤ 10 nM
same,IC50,[2],≥ 500 nM
"COc1cc(Nc2cnc3c(F)nn([C@@H](C)C4CCOCC4)c3n2)n[nH]1 [Example 123, (S)-3-fluoro-N-(5-methoxy-1H-pyrazol-3-yl)-1-(1-(tetrahydro-2H-pyran-4-yl)ethyl)-1H-pyrazolo[3,4-b]pyrazin-6-amine]",IC50,[1],≤ 10 nM
same,IC50,[2],≥ 500 nM
"CC[C@H]([C@H](C)O)n1ncc2ncc(Nc3cc(OC(F)F)[nH]n3)nc21 (single isomer, unassigned) [Example 5, (2S,3R)-3-(6-((5-(difluoromethoxy)-1H-pyrazol-3-yl)amino)-1H-pyrazolo[3,4-b]pyrazin-1-yl)pentan-2-ol or (2S,3S)-3-(6-((5-(difluoromethoxy)-1H-pyrazol-3-yl)amino)-1H-pyrazolo[3,4-b]pyrazin-1-yl)pentan-2-ol]",IC50,[1],≤ 10 nM
same,IC50,[2],≥ 500 nM
"FC(F)Oc1cc(Nc2cnc3cnn(C[C@H]4CCCOC4)c3n2)n[nH]1 (single isomer, unassigned) [Example 142, (S)-N-(5-(difluoromethoxy)-1H-pyrazol-3-yl)-1-((tetrahydro-2H-pyran-3-yl)methyl)-1H-pyrazolo[3,4-b]pyrazin-6-amine or (R)-N-(5-(difluoromethoxy)-1H-pyrazol-3-yl)-1-((tetrahydro-2H-pyran-3-yl)methyl)-1H-pyrazolo[3,4-b]pyrazin-6-amine]",IC50,[1],≤ 10 nM
same,IC50,[2],100 to 500 nM
"O=C1C[C@H](Cn2ncc3ncc(Nc4cc(OC(F)F)[nH]n4)nc32)CN1 (single isomer, unassigned) [Example 20, (S)-4-((6-((5-(difluoromethoxy)-1H-pyrazol-3-yl)amino)-1H-pyrazolo[3,4-b]pyrazin-1-yl)methyl)pyrrolidin-2-one or (R)-4-((6-((5-(difluoromethoxy)-1H-pyrazol-3-yl)amino)-1H-pyrazolo[3,4-b]pyrazin-1-yl)methyl)pyrrolidin-2-one]",IC50,[1],≤ 10 nM
same,IC50,[2],≥ 500 nM
"N#C[C@@H]1C[C@H]1Cn1ncc2ncc(Nc3cc(OC(F)F)[nH]n3)nc21 (single isomer, unassigned) [Example 26, (1R,2R)-2-((6-((5-(difluoromethoxy)-1H-pyrazol-3-yl)amino)-1H-pyrazolo[3,4-b]pyrazin-1-yl)methyl)cyclopropane-1-carbonitrile or (1S,2S)-2-((6-((5-(difluoromethoxy)-1H-pyrazol-3-yl)amino)-1H-pyrazolo[3,4-b]pyrazin-1-yl)methyl)cyclopropane-1-carbonitrile]",IC50,[1],> 100 nM
same,IC50,[2],≥ 500 nM
"CCC([C@@H](C)O)n1ncc2ncc(Nc3cc(OC(F)F)[nH]n3)nc21 (single isomer, unassigned) [Example 202]",IC50,[1],30 to 100 nM
same,IC50,[2],≥ 500 nM
"FC(F)Oc1cc(Nc2cnc3cnn([C@H](c4ccccn4)C4CC4)c3n2)n[nH]1 [Example 102, (S)-1-(cyclopropyl(pyridin-2-yl)methyl)-N-(5-(difluoromethoxy)-1H-pyrazol-3-yl)-1H-pyrazolo[3,4-b]pyrazin-6-amine]",IC50,[1],20 to 30 nM
same,IC50,[2],≥ 500 nM
"OC[C@@H](c1ccccc1)n1ncc2ncc(Nc3cc(OC(F)F)[nH]n3)nc21 [Example 203, (R)-2-(6-((5-(difluoromethoxy)-1H-pyrazol-3-yl)amino)-1H-pyrazolo[3,4-b]pyrazin-1-yl)-2-phenylethan-1-ol]",IC50,[1],30 to 100 nM
same,IC50,[2],≥ 500 nM
"C[C@H](CO)Cn1ncc2ncc(Nc3cc(OC(F)F)[nH]n3)nc21 [Example 199, (S)-3-(6-((5-(difluoromethoxy)-1H-pyrazol-3-yl)amino)-1H-pyrazolo[3,4-b]pyrazin-1-yl)-2-methylpropan-1-ol]",IC50,[1],30 to 100 nM
same,IC50,[2],≥ 500 nM
"[2H]C([2H])(C)n1ncc2ncc(Nc3cc(OC(F)F)[nH]n3)nc21 [Example 225, N-(5-(difluoromethoxy)-1H-pyrazol-3-yl)-1-(ethyl-1,1-d2)-1H-pyrazolo[3,4-b]pyrazin-6-amine]",IC50,[1],30 to 100 nM
same,IC50,[2],≥ 500 nM
"C[C@@H]([C@@H]1COCCO1)n1ncc2ncc(Nc3cc(OC(F)F)[nH]n3)nc21 (single isomer, unassigned) [Example 213]",IC50,[1],10 to 20 nM
same,IC50,[2],≥ 500 nM
"CC[C@@H](c1ccccn1)n1ncc2ncc(Nc3cc(OC(F)F)[nH]n3)nc21 [Example 97, (S)-N-(5-(difluoromethoxy)-1H-pyrazol-3-yl)-1-(1-(pyridin-2-yl)propyl)-1H-pyrazolo[3,4-b]pyrazin-6-amine]",IC50,[1],≤ 10 nM
same,IC50,[2],≥ 500 nM
"O[C@H]1C[C@H](n2ncc3ncc(Nc4cc(OC(F)F)[nH]n4)nc32)C1 (single isomer, unassigned) [Example 146, (1s,3s)-3-(6-((5-(difluoromethoxy)-1H-pyrazol-3-yl)amino)-1H-pyrazolo[3,4-b]pyrazin-1-yl)cyclobutan-1-ol or (1r,3r)-3-(6-((5-(difluoromethoxy)-1H-pyrazol-3-yl)amino)-1H-pyrazolo[3,4-b]pyrazin-1-yl)cyclobutan-1-ol]",IC50,[1],20 to 30 nM
same,IC50,[2],≥ 500 nM
"C[C@@H]([C@H]1CCOC1)n1ncc2ncc(Nc3cc(OC(F)F)[nH]n3)nc21 (single isomer, unassigned) [Example 12]",IC50,[1],30 to 100 nM
same,IC50,[2],≥ 500 nM
"FC(F)Oc1cc(Nc2cnc3cnn(C[C@H]4C[C@@H]4F)c3n2)n[nH]1 (single isomer, unassigned) [Example 160, N-(5-(difluoromethoxy)-1H-pyrazol-3-yl)-1-(((1S,2R)-2-fluorocyclopropyl)methyl)-1H-pyrazolo[3,4-b]pyrazin-6-amine or N-(5-(difluoromethoxy)-1H-pyrazol-3-yl)-1-(((1R,2S)-2-fluorocyclopropyl)methyl)-1H-pyrazolo[3,4-b]pyrazin-6-amine]",IC50,[1],20 to 30 nM
same,IC50,[2],≥ 500 nM
"FC(F)Oc1cc(Nc2cnc3cnn(CC4CCOCC4)c3n2)n[nH]1 [Example 2, N-(5-(difluoromethoxy)-1H-pyrazol-3-yl)-1-((tetrahydro-2H-pyran-4-yl)methyl)-1H-pyrazolo[3,4-b]pyrazin-6-amine]",IC50,[1],≤ 10 nM
same,IC50,[2],100 to 500 nM
"O[C@H]1CC[C@@H](n2ncc3ncc(Nc4cc(OC(F)F)[nH]n4)nc32)CC1 [Example 57, (1s,4s)-4-(6-((5-(difluoromethoxy)-1Hpyrazol-3-yl)amino)-1Hpyrazolo[3,4-b]pyrazin-1-yl)cyclohexan-1-ol]",IC50,[1],30 to 100 nM
same,IC50,[2],≥ 500 nM
"C[C@H](c1ccccn1)n1ncc2ncc(Nc3cc(OC(F)F)[nH]n3)nc21 [Example 82, (R)-N-(5-(difluoromethoxy)-1H-pyrazol-3-yl)-1-(1-(pyridin-2-yl)ethyl)-1H-pyrazolo[3,4-b]pyrazin-6-amine]",IC50,[1],20 to 30 nM
same,IC50,[2],≥ 500 nM
"N#CC1(Cn2ncc3ncc(Nc4cc(OC(F)F)[nH]n4)nc32)CCOCC1 [Example 115, 4-((6-((5-(difluoromethoxy)-1H-pyrazol-3-yl)amino)-1H-pyrazolo[3,4-b]pyrazin-1-yl)methyl)tetrahydro-2H-pyran-4-carbonitrile]",IC50,[1],30 to 100 nM
same,IC50,[2],≥ 500 nM
"OC[C@@H](C1CCOCC1)n1ncc2ncc(Nc3cc(OC(F)F)[nH]n3)nc21 [Example 30, (R)-2-(6-((5-(difluoromethoxy)-1H-pyrazol-3-yl)amino)-1H-pyrazolo[3,4-b]pyrazin-1-yl)-2-(tetrahydro-2H-pyran-4-yl)ethan-1-ol]",IC50,[1],20 to 30 nM
same,IC50,[2],≥ 500 nM
"COc1cc(Nc2cnc3cnn(Cc4cncs4)c3n2)n[nH]1 [Example 75, N-(5-methoxy-1H-pyrazol-3-yl)-1-(thiazol-5-ylmethyl)-1H-pyrazolo[3,4-b]pyrazin-6-amine]",IC50,[1],20 to 30 nM
same,IC50,[2],≥ 500 nM
"FC(F)Oc1cc(Nc2cnc3cnn(CC4CCCCC4)c3n2)n[nH]1 [Example 105, 1-(cyclohexylmethyl)-N-(5-(difluoromethoxy)-1H-pyrazol-3-yl)-1H-pyrazolo[3,4-b]pyrazin-6-amine]",IC50,[1],≤ 10 nM
same,IC50,[2],100 to 500 nM
"COc1cc(Nc2cnc3cnn(Cc4ccc(F)nc4)c3n2)n[nH]1 [Example 76, 1-((6-fluoropyridin-3-yl)methyl)-N-(5-methoxy-1H-pyrazol-3-yl)-1H-pyrazolo[3,4-b]pyrazin-6-amine]",IC50,[1],20 to 30 nM
same,IC50,[2],≥ 500 nM
"C[C@H]([C@H]1CCOC1)n1ncc2ncc(Nc3cc(OC(F)F)[nH]n3)nc21 (single isomer, unassigned) [Example 10]",IC50,[1],≤ 10 nM
same,IC50,[2],< 100 nM
